Assay results taken from ChEMBL document CHEMBL1140197, “Synthesis, characterization and antibacterial activity of cobalt(III) complexes with pyridine-amide ligands” (Eur J Med Chem, 2008).

How the values were obtained:
Raoultella planticola = assay: Antibacterial activity against Klebsiella planticola MTCC 2272 after 16 hrs by microbroth dilution method; assay type: functional, organism-based
Shigella flexneri = assay: Antibacterial activity against Shigella flexneri MTCC 1457 after 16 hrs by microbroth dilution method; assay type: functional, organism-based
Pseudomonas aeruginosa [1] = assay: Antibacterial activity against Pseudomonas aeruginosa MTCC 1688 after 16 hrs by microbroth dilution method; assay type: functional, organism-based
Escherichia coli = assay: Antibacterial activity against clinical isolate resistant Escherichia coli after 16 hrs by microbroth dilution method; assay type: functional, organism-based
Proteus vulgaris = assay: Antibacterial activity against clinical isolate resistant Proteus vulgaris after 16 hrs by microbroth dilution method; assay type: functional, organism-based
Pseudomonas aeruginosa [2] = assay: Antibacterial activity against clinical isolate resistant Pseudomonas aeruginosa after 16 hrs by microbroth dilution method; assay type: functional, organism-based
[3] = Cytotoxicity against HEK cells assessed as cell viability at 0.73 to 1500 ug/mL after 48 hrs by MTT assay; assay type: cell-based; settings: human, hek293, 48 h

GENTAMICIN [listing 1 of 2 here]
MIC (Raoultella planticola): 1.46 µg/mL
MIC (Shigella flexneri): 1.46 µg/mL
MIC (Pseudomonas aeruginosa [1]): 1.46 µg/mL
MIC (Escherichia coli): 11 µg/mL
MIC (Proteus vulgaris): 187 µg/mL
MIC (Pseudomonas aeruginosa [2]): 5.5 µg/mL

GENTAMICIN [listing 2 of 2 here]
Activity [3]: Active
